Data from PubChem BioAssay AID2060611 (Molecular Pharmacology Branch, DTP, NCI, 2025).

System: 628569-122-R-J1-PDC complex spheroid viability
Assay: Anticancer human tumor 628569-122-R-J1-PDC patient-derived head and neck squamous carcinoma cell line growth inhibition [CLK]
Settings: for viability, T/C: stronger effect = lower value
Text: A high-throughput screen of multi-cell type tumor spheroids was designed to identify active combinations of […] and targeted small molecules. Complex spheroids include a stromal component modeled by human endothelial cells (HUVEC) and fibroblasts modeled by human mesenchymal stem cells (MSCs). The concentration ranges selected for each drug and investigational agent were based upon clinically achievable concentrations if the clinical Cmax of the agent was known.
Compounds. The drugs and investigational agents: cirtuvivint (SM08502; NSC835563), CC-671 (NSC850746), vemurafenib (NSC761431), tapotoclax (NSC804041), sotorasib (NSC818433), adagrasib (NSC831453), MRTX-1133 (NSC836407), BAY2416964 (NSC825713), copanlisib (NSC816437), inavolisib (NSC800729), abemaciclib (NSC768073), osimertinib (NSC779217), entinostat (NSC756642), eltanexor (KPT-8602, NSC794443), venetoclax (NSC766270), ceralasertib (NSC777638), bortezomib (NSC756655), olaparib (NSC753686), talazoparib (NSC767125), alisertib (NSC759677), peposertib (NSC802822), gemcitabine (NSC613327), 5-fluorouracil (NSC19893), SN-38 (NSC673596), oxaliplatin (NSC266046), paclitaxel (NSC125973), and doxorubicin (NSC123127), were obtained from the National Cancer Institute (NCI) Developmental Therapeutics Program Chemical Repository. The FDA-approved anticancer drug set is available from the Developmental Therapeutics Program at https://dtp.cancer.gov/organization/dscb/obtaining/available plates.htm. […] The stock solutions were prepared in dimethyl sulfoxide (DMSO, Sigma-Aldrich, St. Louis, MO, cat. D2650), except for the platinum complexes which were prepared in saline (Quality Biological, Gaithersburg, MD, cat. 114-055-101), at 800-fold the tested concentration and stored at -70 degrees C prior to their use. All drugs and investigational agents were tested over a range starting from a high concentration at or near the clinical Cmax and decreasing in half-log increments. If the clinical Cmax for an agent had not been determined, the highest concentration tested was 10 microM.
Cell Culture. All cells were maintained in an incubator at 37 degrees C and 5% CO2 with 95% humidity. The PDC lines were cultured according to standard operating procedures established by the NCI PDMR. Briefly, all PDCs were thawed and cultured in Matrigel-coated flasks prepared with a working solution of 1X Ham's F-12 nutrient mix, without supplementation (Invitrogen, Waltham, MA, cat. 11765054), 100 U/mL penicillin-streptomycin (Invitrogen, cat. 15140122), and 2.5% Matrigel (Corning Inc., Corning, NY, cat. 354248) for the first three passages. The 947758-054-R-J2-PDC line was cultured in 6B/Colon 1A media, which includes advanced DMEM/F-12 (Thermo Fisher Scientific, cat. 12634028), 10 mM HEPES (Thermo Fisher Scientific, cat. 15630080), 1X GlutaMAX supplement (Thermo Fisher Scientific, cat. 35050061), 0.1 mg/mL primocin (InvivoGen, cat. ant-pm-2), 10% defined fetal bovine serum, heat inactivated (HyClone Laboratories Inc., cat. SH30070.03HI), 1.25 mM N-Acetyl-L-cysteine (Sigma-Aldrich, cat. A9165), 10 mM nicotinamide (Sigma-Aldrich, cat. N0636), 1X B-27 supplement (Thermo Fisher Scientific, cat. 17504044), 1X N-2 supplement (Thermo Fisher Scientific, cat. 17502048), and 10 microM Y-27632 dihydrochloride (Tocris Bioscience, cat. 1254). The 876862-298-R-J1-PDC was cultured in 6E media, which includes all 6B/Colon 1A media components plus 50% L-WRN conditioned media (ATCC, cat. CRL-3276), 50 ng/mL recombinant human EGF recombinant protein (hEGF; Thermo Fisher Scientific, cat. PHG0311), 10 ng/mL recombinant human fibroblast growth factor 10 (hGFG-10; PeproTech, cat. 100-26), 1 ng/mL recombinant human fibroblast growth factor 2 (hFGF-2; PeproTech, cat. 100-18B), and 1 µM prostaglandin E2 (PGE2; Tocris, cat. 2296). The 227483-062-R1-J1-PDC line was cultured in Panc media, containing all 6E components except hFGF-2, with the addition of 500 nM SB-431542 (Selleckchem, cat. S1067) and 10 nM gastrin (Tocris, cat. 3006). […]

[1] = curve of first compound, second compound 0.0316 µM
[2] = curve of first compound, second compound 0.1 µM
[3] = curve of first compound, second compound 0.316 µM
[4] = curve of first compound, second compound 1 µM
[5] = curve of first compound, second compound 3.16 µM
[6] = curve of first compound, second compound 10 µM
[7] = second compound 0.0316 µM, first compound 0.0316 µM
[8] = second compound 0.0316 µM, first compound 0.1 µM
[9] = second compound 0.0316 µM, first compound 0.316 µM
[10] = second compound 0.0316 µM, first compound 1 µM
[11] = second compound 0.1 µM, first compound 0.0316 µM
[12] = second compound 0.1 µM, first compound 0.1 µM
[13] = second compound 0.1 µM, first compound 0.316 µM
[14] = second compound 0.1 µM, first compound 1 µM
[15] = second compound 0.316 µM, first compound 0.0316 µM
[16] = second compound 0.316 µM, first compound 0.1 µM
[17] = second compound 0.316 µM, first compound 0.316 µM
[18] = second compound 0.316 µM, first compound 1 µM
[19] = second compound 1 µM, first compound 0.0316 µM
[20] = second compound 1 µM, first compound 0.1 µM
[21] = second compound 1 µM, first compound 0.316 µM
[22] = second compound 1 µM, first compound 1 µM
[23] = second compound 3.16 µM, first compound 0.0316 µM
[24] = second compound 3.16 µM, first compound 0.1 µM
[25] = second compound 3.16 µM, first compound 0.316 µM
[26] = second compound 3.16 µM, first compound 1 µM
[27] = second compound 10 µM, first compound 0.0316 µM
[28] = second compound 10 µM, first compound 0.1 µM
[29] = second compound 10 µM, first compound 0.316 µM
[30] = second compound 10 µM, first compound 1 µM
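Further: spheroids exposed to agents for seven days before readout.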
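Wherever viability, T/C is given: 100% = DMSO vehicle control viability.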

In the case of `CN1CCN(c2cc(C(=O)Nc3cc4cc(-c5cnn(C)c5)ccc4cn3)ccn2)CC1`, the viability, T/C (compound 0.0316 µM) is reported as 104% [middle of 12 runs], the viability, T/C (compound 0.1 µM) is reported as 69.2% [middle of 12 runs] and the viability, T/C (compound 0.316 µM) is reported as 35.6% [middle of 12 runs]. The viability, T/C (compound 1 µM) was 5.28% [middle of 12 runs], the viability, T/C (compound 3.16 µM) was 7.69% [middle of 12 runs] and the viability, T/C (compound 10 µM) was 6.81% [middle of 12 runs]. For the same compound, the IC50 (compound alone, run of 09/18/2023) was 187 nM [middle of 12 runs].

`O=C(c1cc(Cc2n[nH]c(=O)c3ccccc23)ccc1F)N1CCN(C(=O)C2CC2)CC1` + CNC(=O)c1ccc(Nc2nc(OC3CCCC3)c3c(-c4ccc5nc(C)oc5c4)c[nH]c3n2)c(OC)c1 gave an IC50 [1] of over 10000 nM, an IC50 [2] of over 10000 nM and an IC50 [3] of 1980 nM. For the same compound, the IC50 [4] was under 31.6 nM, the IC50 [5] was under 31.6 nM and the IC50 [6] was 31.6 nM. The viability, T/C [7] was 99.7%, the viability, T/C [8] was 105% and the viability, T/C [9] was 102%. For the same compound, the viability, T/C [10] was 81.9%, the viability, T/C (second compound 0.0316 µM, first compound 3.16 µM) was 103% and the viability, T/C (second compound 0.0316 µM, first compound 10 µM) was 61.7%. For the same compound, the viability, T/C [11] was 63.2%, the viability, T/C [12] was 60% and the viability, T/C [13] was 60.7%. For the same compound, the viability, T/C [14] was 59.6%, the viability, T/C (second compound 0.1 µM, first compound 3.16 µM) was 62.8% and the viability, T/C (second compound 0.1 µM, first compound 10 µM) was 41.7%. For the same compound, the viability, T/C [15] was 50.8%, the viability, T/C [16] was 55.5% and the viability, T/C [17] was 56.6%. For the same compound, the viability, T/C [18] was 51.9%, the viability, T/C (second compound 0.316 µM, first compound 3.16 µM) was 47.5% and the viability, T/C (second compound 0.316 µM, first compound 10 µM) was 39.7%. It also gave a viability, T/C [19] of 39.8%, a viability, T/C [20] of 49.3% and a viability, T/C [21] of 47.5%. The viability, T/C [22] was 47%, the viability, T/C (second compound 1 µM, first compound 3.16 µM) was 45.2% and the viability, T/C (second compound 1 µM, first compound 10 µM) was 33.2%. The viability, T/C [23] was 43.7%, the viability, T/C [24] was 44.4% and the viability, T/C [25] was 41.8%. The viability, T/C [26] was 41.2%, the viability, T/C (second compound 3.16 µM, first compound 3.16 µM) was 42.5% and the viability, T/C (second compound 3.16 µM, first compound 10 µM) was 31.5%. It also gave a viability, T/C [27] of 46.6%, a viability, T/C [28] of 41.8% and a viability, T/C [29] of 49.3%. It also gave a viability, T/C [30] of 39.1%, a viability, T/C (second compound 10 µM, first compound 3.16 µM) of 56.1% and a viability, T/C (second compound 10 µM, first compound 10 µM) of 26.5%.

With `COc1c(OCCCN2CCOCC2)ccc2c3n(c(=NC(=O)c4cnc(N)nc4)nc12)CCN3` + CN1CCN(c2cc(C(=O)Nc3cc4cc(-c5cnn(C)c5)ccc4cn3)ccn2)CC1 the IC50 [1] was 21.1 nM, the IC50 [2] was 9 nM and the IC50 [3] was under 3.16 nM. It also gave an IC50 [4] of under 3.16 nM, an IC50 [5] of under 3.16 nM and an IC50 [6] of under 3.16 nM. It also gave a viability, T/C (second compound 0.0316 µM, first compound 0.00316 µM) of 77%, a viability, T/C (second compound 0.0316 µM, first compound 0.01 µM) of 67.5% and a viability, T/C [7] of 34.4%. It also gave a viability, T/C [8] of 34.8%, a viability, T/C [9] of 18.3% and a viability, T/C [10] of 7.77%. For the same compound, the viability, T/C (second compound 0.1 µM, first compound 0.00316 µM) was 54.5%, the viability, T/C (second compound 0.1 µM, first compound 0.01 µM) was 51.3% and the viability, T/C [11] was 34.6%. It also gave a viability, T/C [12] of 16.8%, a viability, T/C [13] of 13.2% and a viability, T/C [14] of 2.93%. The viability, T/C (second compound 0.316 µM, first compound 0.00316 µM) was 35.2%, the viability, T/C (second compound 0.316 µM, first compound 0.01 µM) was 21.1% and the viability, T/C [15] was 11.8%. For the same compound, the viability, T/C [16] was 9.4%, the viability, T/C [17] was 5.28% and the viability, T/C [18] was 1.37%. The viability, T/C (second compound 1 µM, first compound 0.00316 µM) was 9.4%, the viability, T/C (second compound 1 µM, first compound 0.01 µM) was 8.16% and the viability, T/C [19] was 8.92%. The viability, T/C [20] was 6.58%, the viability, T/C [21] was 5.37% and the viability, T/C [22] was 4.98%. It also gave a viability, T/C (second compound 3.16 µM, first compound 0.00316 µM) of 5.32%, a viability, T/C (second compound 3.16 µM, first compound 0.01 µM) of 5.77% and a viability, T/C [23] of 8.53%. It also gave a viability, T/C [24] of 6.16%, a viability, T/C [25] of 7.48% and a viability, T/C [26] of 4.29%. It also gave a viability, T/C (second compound 10 µM, first compound 0.00316 µM) of 7.43%, a viability, T/C (second compound 10 µM, first compound 0.01 µM) of 2.01% and a viability, T/C [27] of 3.89%. For the same compound, the viability, T/C [28] was 2.57%, the viability, T/C [29] was 3.58% and the viability, T/C [30] was 2.62%.
